Structures can show the parent of a compound that is named as a salt.
Experiments:
[1] = target: T1, guinea pig lung membranes (Cavia porcellus, UniProt P30547); assay: ^3 H-Substance P binding to guinea pig lung membranes; details: at the concentration of 1 μg/ml; read-out: inhibition rate of ^3 H-Substance P binding to guinea pig lung membranes
T1 construct: The trachea and lung were removed and homogenized in ice-cold buffer; from tissue; host or cells: guinea pig (male Hartley strain) trachea and lung, crude membrane fraction
Procedure: ^3 H-Substance P Binding to Guinea Pig Lung Membranes Test Method
^3 H-Substance P Binding to Guinea Pig Lung Membranes
(a) Crude lung membrane preparation
Male Hartly strain guinea pigs were stunned and bled. The trachea and lung were removed and homogenized in ice-cold buffer (0.25M sucrose, 50 mM Tris-HCl pH 7.5, 0.1 mM EDTA) by using Polytoron (Kinematica). The homogenate was centrifuged (1000×g, 10 minutes) to remove tissue clumps and the supernatant was centrifuges (35000×g, 20 minutes) to yield pellet. The pellet was resuspended in buffer (5 mM Tris-HCl pH 7.5), homogenized with a teflon homogenizer and centrifuged (35000×g, 20 minutes) to yield pellet which was referred to as crude membrane fractions. The obtained pellet was resuspended in buffer (50 mM Tris-HCl pH 7.5) and stored at -70° C. until use.
(b) ^3 H-Substance P binding to preparation membrane
Frozen crude membrane fractions were thawed and resuspended in Medium 1 (50 mM Tris-HCl pH 7.5, 1 mM MnCl2, 0.02% BSA, 2 μg/ml chymostatin, 4 μg/ml leupeptin, 40 μg/ml bacitracin, 10 μM phosphoramidon). ^3 H-Substance P (1 nM) was incubated with 100 μl of the membrane preparations with or without test compounds in Medium 1 at 25° C. for 30 minutes in a final volume of 500 μl. At the end of the incubation period, 5 ml ice-cold 50 mM Tris-HCl buffer was added to each tube and its content was quickly filtered over a Wahtman GF/B glass filter (pretreated with 0.1% polyethylene imine for 3 hours prior to use) under aspiration. Each of the filters was then washed four times with 5 ml of ice-cold buffer (50 mM Tris-HCl pH 7.5). […] All data presented are specific binding defined as that displaceable by 5 μM unlabeled Substance P.

h-NK1 receptors = target: T2, h-NK1 receptors (Homo sapiens, UniProt P25103); assay: ^125 I-BH-Substance P binding to h-NK1 receptors; details: at the concentration of 0.1 μg/ml; CHO cell membranes expressing h-NK1 receptors; read-out: inhibition rate of ^125 I-BH-Substance P binding to h-NK1 receptors
T2 construct: expressed in transfected cells; host or cells: CHO cells
Procedure: ^125 I-BH-Substance P Binding to h-NK1 Receptors Test Method
^125 I-BH-Substance P Binding to h-NK1 Receptors
(a) Crude CHO cell membrane preparation
CHO cells permanently expressing h-NK1 receptors were harvested and homogenized with a Dounce homogenizer at 4° C. in a buffer (0.25M sucrose, 25 mM Tris-HCl pH 7.4, 10 mM MgCl2, 1 mM EDTA, 5 μg/ml p-APMSF). The homogenate was centrifuged (500×g, 10 minutes), and the pellet was resuspended in the same buffer, homogenized, and centrifuged. The two supernatants were combined and centrifuged (100,000×g, 1 hour). The crude cell membranes thus isolated were resuspended in buffer (25 mM Tris-HCl pH 7.4, 10 mM MgCl2, 1 mM EDTA, 5 μg/ml p-APMSF) and stored at -80° C. until use.
(b) ^125 I-BH-Substance P binding to preparation membrane Cell membranes (6 μg/ml) were incubated with ^125 I-BH-Substance P (0.1 nM) with or without test compounds in 0.25 ml of Medium 2(50 mM Tris-HCl pH 7.4, 5 mM MnCl2, 20 μg/ml chymostatin, 40 μg/ml bacitracin, 4 μg/ml leupeptin, 5 μg/ml p-APMSF, 200 μg/ml BSA) at 22° C. for 90 minutes. At the end of the incubation period, the content was quickly filtered over a Wahtman GF/C glass filter (pretreated with 0.1% polyethylene imine for 3 hours prior to use) under aspiration. Each of the filters was then washed four times with 5 ml of buffer (50 mM Tris-HCl pH 7.4, 5 mM MnCl2). The radioactivity was counted by using Auto Gamma counter (Packerd RIASTAR 5420A). All data presented are specific binding defined as that displaceable by 3 μM unlabeled Substance P.

T1 sequence (P30547 whole entry): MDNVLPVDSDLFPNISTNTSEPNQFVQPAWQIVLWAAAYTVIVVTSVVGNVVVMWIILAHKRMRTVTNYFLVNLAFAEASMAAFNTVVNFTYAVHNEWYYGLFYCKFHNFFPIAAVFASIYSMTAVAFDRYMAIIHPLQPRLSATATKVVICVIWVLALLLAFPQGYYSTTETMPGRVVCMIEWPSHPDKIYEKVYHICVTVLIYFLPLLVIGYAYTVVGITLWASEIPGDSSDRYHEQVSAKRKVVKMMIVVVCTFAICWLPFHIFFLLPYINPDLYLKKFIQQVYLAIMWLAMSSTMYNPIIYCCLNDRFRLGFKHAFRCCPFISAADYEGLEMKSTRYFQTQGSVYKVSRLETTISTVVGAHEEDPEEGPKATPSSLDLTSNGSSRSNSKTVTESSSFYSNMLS
T2 sequence (P25103 whole entry): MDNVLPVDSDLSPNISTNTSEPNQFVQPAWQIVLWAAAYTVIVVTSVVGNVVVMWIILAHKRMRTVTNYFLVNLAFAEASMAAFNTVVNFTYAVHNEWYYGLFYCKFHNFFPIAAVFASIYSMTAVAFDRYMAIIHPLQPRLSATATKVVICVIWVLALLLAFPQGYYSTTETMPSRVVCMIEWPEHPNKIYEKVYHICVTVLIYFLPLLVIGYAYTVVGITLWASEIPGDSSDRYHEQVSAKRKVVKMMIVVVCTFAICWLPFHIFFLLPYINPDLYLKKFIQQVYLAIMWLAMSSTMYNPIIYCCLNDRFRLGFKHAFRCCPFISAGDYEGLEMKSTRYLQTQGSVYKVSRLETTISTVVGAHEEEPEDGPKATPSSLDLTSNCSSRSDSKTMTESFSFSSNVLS

Compound	inhibition at 1 µg/mL [1]	inhibition at 0.1 µg/mL (h-NK1 receptors)
O=C(CCc1c[nH]c2ccccc12)N1CCN(C(=O)c2cc(C(F)(F)F)cc(C(F)(F)F)c2)[C@H](Cc2ccccc2)C1 [Example 17-10, (2R)-2-Benzyl-1-[3,5-bis(trifluoromethyl)benzoyl]-4-[3-(1H-indol-3-yl)propionyl]piperazine]	> 90%	–
CN(C)C(=O)N1CCN(C(=O)c2cc(C(F)(F)F)cc(C(F)(F)F)c2)[C@H](Cc2ccccc2)C1 [Example 19-4, (2R)-2-Benzyl-1-[3,5-bis(trifluoromethyl)benzoyl]-4-(N,N-dimethylcarbamoyl)piperazine]	> 90%	–
CS(=O)(=O)N1CCN(C(=O)c2cc(C(F)(F)F)cc(C(F)(F)F)c2)[C@H](Cc2c[nH]c3ccccc23)C1 [Example 19-13, (2R)-1-[3,5-Bis(trifluoromethyl)benzoyl]-2-(1H-indol-3-yl-methyl)-4-mesylpiperazine]	–	> 90%
Cc1ccc(C[C@@H]2CN(C(=O)/C=C/C3CCCCC3)CCN2C(=O)c2cc(C(F)(F)F)cc(C(F)(F)F)c2)cc1C [Example 17-60, (2R)-1-[3,5-Bis(trifluoromethyl)benzoyl]-2-(3,4-dimethylbenzyl)-4-(3-cyclohexyl-trans-acryloyl)piperazine]	–	> 90%
O=C(/C=C/C1CCCCC1)N1CCN(C(=O)c2cc(C(F)(F)F)cc(C(F)(F)F)c2)[C@H](Cc2c[nH]c3ccccc23)C1 [Example 17-50, (2R)-1-[3,5-Bis(trifluoromethyl)benzoyl]-4-[(3-cyclo-hexyl)-trans-acryloyl]-2-(1H-indol-3-yl-methyl)-piperazine]	–	> 90%
CC(=O)N1CCN(C(=O)c2cc(C(F)(F)F)cc(C(F)(F)F)c2)[C@H](Cc2ccc(C)c(C)c2)C1 [Example 19-10, (2R)-4-Acetyl-1-[3,5-bis(trifluoromethyl)benzoyl]-2-(3,4-dimethylbenzyl)piperazine]	> 90%	–
CN(C)CC(=O)N1CCN(C(=O)c2cc(C(F)(F)F)cc(C(F)(F)F)c2)[C@H](Cc2c[nH]c3ccccc23)C1 [Example 24-4, (2R)-1-[3,5-Bis(trifluoromethyl)benzoyl]-2-(1H-indol-3-yl-methyl)-4-[2-(N,N-dimethylamino)acetyl]-piperazine hydrochloride]	> 90%	–
CCCC(=O)Nc1nc(CN2CCN(C(=O)c3cc(C(F)(F)F)cc(C(F)(F)F)c3)[C@H](Cc3c[nH]c4ccccc34)C2)cs1 [Example 79-6]	–	> 90%
Cc1ccc(C[C@@H]2CNCCN2C(=O)c2cc(C(F)(F)F)cc(C(F)(F)F)c2)cc1C [Example 24-8, (2R)-1-[3,5-Bis(trifluoromethyl)benzoyl]-2-(3,4-dimethylbenzyl) piperazine hydrochloride]	> 90%	–
O=C(/C=C/c1ccc([N+](=O)[O-])cc1)N1CCN(C(=O)c2cc(C(F)(F)F)cc(C(F)(F)F)c2)[C@H](Cc2ccccc2)C1 [Example 17-24, (2R)-2-Benzyl-1-[3,5-bis(trifluoromethyl)benzoyl]-4-(4-nitro-trans-cinnamoyl)piperazine]	> 90%	–
CNC(=O)CN1CCN(C(=O)c2cc(C(F)(F)F)cc(C(F)(F)F)c2)[C@H](Cc2c[nH]c3ccccc23)C1 [Example 26, (2R)-1-[3,5-bis (trifluoromethyl)benzoyl]-2-(1H-indol-3-yl-methyl)-4-(N-methylcarbamoylmethyl)piperazine hydrochloride]	–	> 90%
CC(=O)Nc1nc(/C=C/C(=O)N2CCN(C(=O)c3cc(C(F)(F)F)cc(C(F)(F)F)c3)[C@H](Cc3c[nH]c4ccccc34)C2)cs1 [Example 21-3, (2R)-4-[3-[2-(Acetylamino)thiazol-4-yl]-trans-acryloyl]-1-[3,5-bis(trifluoromethyl)benzoyl]-2-(1H-indol-3-yl-methyl)piperazine]	–	> 90%
O=C(c1cc(C(F)(F)F)cc(C(F)(F)F)c1)N1CCNC[C@H]1Cc1ccccc1 [Example 7-7]	> 90%	–
O=C(CCc1ccccc1)N1CCN(C(=O)c2cc(C(F)(F)F)cc(C(F)(F)F)c2)[C@H](Cc2ccccc2)C1 [Example 17-4, (2R)-2-Benzyl-1-[3,5-bis(trifluoromethyl)benzoyl]-4-(3-phenylpropionyl)piperazine]	> 90%	–
O=C(C1CC1)N1CCN(C(=O)c2cc(C(F)(F)F)cc(C(F)(F)F)c2)[C@H](Cc2c[nH]c3ccccc23)C1 [Example 17-56, (2R)-1-[3,5-Bis(trifluoromethyl)benzoyl]-4-(cyclo-propylcarbonyl)-2-(1H-indol-3-yl-methyl)piperazine]	–	> 90%
O=C(CCCc1c[nH]c2ccccc12)N1CCN(C(=O)c2cc(C(F)(F)F)cc(C(F)(F)F)c2)[C@H](Cc2ccccc2)C1 [Example 17-11, (2R)-2-Benzyl-1-[3,5-bis(trifluoromethyl)benzoyl]-4-[4-(1H-indol-3-yl)butyryl]piperazine]	> 90%	–
O=C(CCCc1ccccc1)N1CCN(C(=O)c2cc(C(F)(F)F)cc(C(F)(F)F)c2)[C@H](Cc2ccccc2)C1 [Example 17-5, (2R)-2-Benzyl-1-[3,5-bis(trifluoromethyl)benzoyl]-4-(4-phenylbutyryl)piperazine]	> 90%	–
O=C(/C=C/c1ccc(F)cc1)N1CCN(C(=O)c2cc(C(F)(F)F)cc(C(F)(F)F)c2)[C@H](Cc2c[nH]c3ccccc23)C1 [Example 17-2, (2R)-1-[3,5-Bis(trifluoromethyl)benzoyl]-2-(1H-indol-3-yl-methyl)-4-(4-fluoro-trans-cinnamoyl)piperazine]	> 90%	–
O=C(/C=C/c1cccnc1)N1CCN(C(=O)c2cc(C(F)(F)F)cc(C(F)(F)F)c2)[C@H](Cc2c[nH]c3ccccc23)C1 [Example 17-57, (2R)-1-[3,5-Bis(trifluoromethyl)benzoyl]-2-(1H-indol-3-yl-methyl)-4-[3-(3-pyridyl)-trans-acryloyl]-piperazine]	–	> 90%
CN(C)C(=O)N1CCN(C(=O)c2cc(C(F)(F)F)cc(C(F)(F)F)c2)[C@H](Cc2c[nH]c3ccccc23)C1 [Example 19-1, (2R)-1-[3,5-Bis(trifluoromethyl)benzoyl]-2-(1H-indol-3-yl-methyl) -4-(N,N-dimethylaminocarbonyl)piperazine]	> 90%	–
CC(C)(C)C(=O)Nc1nc(CN2CCN(C(=O)c3cc(C(F)(F)F)cc(C(F)(F)F)c3)[C@H](Cc3c[nH]c4ccccc34)C2)cs1 [Example 79-4]	–	> 90%
NC(=O)CN1CCN(C(=O)c2cc(C(F)(F)F)cc(C(F)(F)F)c2)[C@H](Cc2c[nH]c3ccccc23)C1 [Example 25-2, (^2 R)-1-[3,5-Bis(trifluoromethyl)benzoyl]-2-(1H-indol-3-yl-methyl)-4-(carbamoylmethyl)piperazine]	–	> 90%
O=C(/C=C/c1ccccc1)N1CCN(C(=O)c2cc(C(F)(F)F)cc(C(F)(F)F)c2)[C@H](Cc2c[nH]c3ccccc23)C1 [Example 17-1, (2R)-1-[3,5-Bis(trifluoromethyl)benzoyl]-2-(1H-indol-3-yl-methyl)-4-(trans-cinnamoyl)piperazine]	> 90%	–
CN1CCN(NC(=O)CN2CCN(C(=O)c3cc(C(F)(F)F)cc(C(F)(F)F)c3)[C@H](Cc3c[nH]c4ccccc34)C2)CC1 [Example 77, (2R)-1-[3,5-bis(trifluoromethyl)benzoyl]-2-(1H-indol-3-ylmethyl)-4-[N-(4-methyl-1-piperazinyl)carbamoylmethyl]piperazine]	–	> 90%

Source: US5883098A, “Piperazine derivatives” (Fujisawa Pharmaceutical Co., Ltd., priority 1993, dated 1999)
